Experimental data reported in PubChem BioAssay (NCI).
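Tested at 5 concentrations; 48 h exposure; 96-well plates; endpoints linearly interpolated, else capped at highest concentration. GI50 = concentration required for 50% inhibition of growth. TGI: concentration producing complete growth inhibition.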

These compounds were tested on HOP-92 NSCLC (assay: DTP human tumour cell line panel, 48 h).

SMILES | GI50 | TGI
O=c1[nH]c(-c2cccc(F)c2)cc2cc(F)ccc12 | > 100000 nM | > 100000 nM
O=c1cccc(C#CC#C[C@@H]2O[C@H]2CO)o1 | 1060 nM | 3340 nM
CCCCCCn1c(-c2ccc(C(=O)O/N=C(\N)c3ccc4c(c3)OCO4)cc2)nc(-c2ccccc2)c1-c1ccccc1 | 1480 nM | 3300 nM
[N-]=[N+]=CC(=O)OC(CCl)CCl |  | > 100000 nM

The compounds below were run on HL-60(TB) leukemia (assay: DTP human tumour cell line panel, 48 h).

SMILES | GI50 | TGI
O=c1[nH]c(-c2cccc(F)c2)cc2cc(F)ccc12 | 199 nM | 684 nM
O=c1cccc(C#CC#C[C@@H]2O[C@H]2CO)o1 | 3120 nM | > 100000 nM
CCCCCCn1c(-c2ccc(C(=O)O/N=C(\N)c3ccc4c(c3)OCO4)cc2)nc(-c2ccccc2)c1-c1ccccc1 | 1420 nM | 3490 nM
[N-]=[N+]=CC(=O)OC(CCl)CCl |  | > 100000 nM

What follows are compounds tested on U251 CNS (assay: DTP human tumour cell line panel, 48 h).

SMILES | GI50 | TGI
O=c1[nH]c(-c2cccc(F)c2)cc2cc(F)ccc12 | 470 nM | > 100000 nM
O=c1cccc(C#CC#C[C@@H]2O[C@H]2CO)o1 | 1460 nM | 3070 nM
CSc1csc(-c2ccc(-c3ccc(-c4cc(SC)cs4)s3)s2)c1 |  | > 100000 nM
CCCCCCn1c(-c2ccc(C(=O)O/N=C(\N)c3ccc4c(c3)OCO4)cc2)nc(-c2ccccc2)c1-c1ccccc1 | 1740 nM | 3810 nM
[N-]=[N+]=CC(=O)OC(CCl)CCl |  | > 100000 nM

Each compound was assayed on LOX IMVI melanoma (assay: DTP human tumour cell line panel, 48 h).

SMILES | GI50 | TGI
O=c1[nH]c(-c2cccc(F)c2)cc2cc(F)ccc12 | 613 nM | > 100000 nM
O=c1cccc(C#CC#C[C@@H]2O[C@H]2CO)o1 | 797 nM | 1730 nM
CSc1csc(-c2ccc(-c3ccc(-c4cc(SC)cs4)s3)s2)c1 |  | > 100000 nM
CCCCCCn1c(-c2ccc(C(=O)O/N=C(\N)c3ccc4c(c3)OCO4)cc2)nc(-c2ccccc2)c1-c1ccccc1 | 173 nM | 329 nM
[N-]=[N+]=CC(=O)OC(CCl)CCl |  | > 100000 nM

These compounds were tested on SR leukemia (assay: DTP human tumour cell line panel, 48 h).

SMILES | GI50 | TGI
O=c1[nH]c(-c2cccc(F)c2)cc2cc(F)ccc12 | 71.2 nM | > 100000 nM
O=c1cccc(C#CC#C[C@@H]2O[C@H]2CO)o1 | 621 nM | > 100000 nM
CSc1csc(-c2ccc(-c3ccc(-c4cc(SC)cs4)s3)s2)c1 |  | > 100000 nM
CCCCCCn1c(-c2ccc(C(=O)O/N=C(\N)c3ccc4c(c3)OCO4)cc2)nc(-c2ccccc2)c1-c1ccccc1 | 280 nM | 1430 nM
[N-]=[N+]=CC(=O)OC(CCl)CCl |  | > 100000 nM

These compounds were tested on HOP-62 NSCLC (assay: DTP human tumour cell line panel, 48 h).

SMILES | GI50 | TGI
O=c1[nH]c(-c2cccc(F)c2)cc2cc(F)ccc12 | 495 nM | > 100000 nM
O=c1cccc(C#CC#C[C@@H]2O[C@H]2CO)o1 | 1550 nM | 3030 nM
CSc1csc(-c2ccc(-c3ccc(-c4cc(SC)cs4)s3)s2)c1 |  | > 100000 nM
CCCCCCn1c(-c2ccc(C(=O)O/N=C(\N)c3ccc4c(c3)OCO4)cc2)nc(-c2ccccc2)c1-c1ccccc1 | 2110 nM | 4710 nM
[N-]=[N+]=CC(=O)OC(CCl)CCl |  | > 100000 nM

What follows are compounds tested on SNB-75 CNS (assay: DTP human tumour cell line panel, 48 h).

SMILES | GI50 | TGI
O=c1[nH]c(-c2cccc(F)c2)cc2cc(F)ccc12 | 211 nM | > 100000 nM
O=c1cccc(C#CC#C[C@@H]2O[C@H]2CO)o1 | 434 nM | 4070 nM
CSc1csc(-c2ccc(-c3ccc(-c4cc(SC)cs4)s3)s2)c1 |  | > 100000 nM
CCCCCCn1c(-c2ccc(C(=O)O/N=C(\N)c3ccc4c(c3)OCO4)cc2)nc(-c2ccccc2)c1-c1ccccc1 | 1700 nM | 4900 nM

What follows are compounds tested on M14 melanoma (assay: DTP human tumour cell line panel, 48 h).

SMILES | GI50 | TGI
O=c1[nH]c(-c2cccc(F)c2)cc2cc(F)ccc12 | 160 nM | > 100000 nM
O=c1cccc(C#CC#C[C@@H]2O[C@H]2CO)o1 | 414 nM | 
CSc1csc(-c2ccc(-c3ccc(-c4cc(SC)cs4)s3)s2)c1 |  | > 100000 nM
CCCCCCn1c(-c2ccc(C(=O)O/N=C(\N)c3ccc4c(c3)OCO4)cc2)nc(-c2ccccc2)c1-c1ccccc1 | 3750 nM | 22100 nM

What follows are compounds tested on PC-3 prostate (assay: DTP human tumour cell line panel, 48 h).

SMILES | GI50 | TGI
O=c1[nH]c(-c2cccc(F)c2)cc2cc(F)ccc12 | 391 nM | > 100000 nM
O=c1cccc(C#CC#C[C@@H]2O[C@H]2CO)o1 | 1820 nM | 4100 nM
CSc1csc(-c2ccc(-c3ccc(-c4cc(SC)cs4)s3)s2)c1 |  | > 100000 nM
CCCCCCn1c(-c2ccc(C(=O)O/N=C(\N)c3ccc4c(c3)OCO4)cc2)nc(-c2ccccc2)c1-c1ccccc1 | 2620 nM | 11300 nM
[N-]=[N+]=CC(=O)OC(CCl)CCl |  | > 100000 nM

What follows are compounds tested on MALME-3M melanoma (assay: DTP human tumour cell line panel, 48 h).

SMILES | GI50 | TGI
O=c1[nH]c(-c2cccc(F)c2)cc2cc(F)ccc12 | > 100000 nM | > 100000 nM
CSc1csc(-c2ccc(-c3ccc(-c4cc(SC)cs4)s3)s2)c1 |  | > 100000 nM
CCCCCCn1c(-c2ccc(C(=O)O/N=C(\N)c3ccc4c(c3)OCO4)cc2)nc(-c2ccccc2)c1-c1ccccc1 | 1830 nM | 4060 nM
[N-]=[N+]=CC(=O)OC(CCl)CCl |  | > 100000 nM

These compounds were tested on HT29 colon (assay: DTP human tumour cell line panel, 48 h).

SMILES | GI50 | TGI
O=c1[nH]c(-c2cccc(F)c2)cc2cc(F)ccc12 | 261 nM | > 100000 nM
O=c1cccc(C#CC#C[C@@H]2O[C@H]2CO)o1 | 429 nM | 2530 nM
CSc1csc(-c2ccc(-c3ccc(-c4cc(SC)cs4)s3)s2)c1 |  | > 100000 nM
CCCCCCn1c(-c2ccc(C(=O)O/N=C(\N)c3ccc4c(c3)OCO4)cc2)nc(-c2ccccc2)c1-c1ccccc1 | 3640 nM | 39100 nM
[N-]=[N+]=CC(=O)OC(CCl)CCl |  | > 100000 nM

These compounds were tested on UACC-62 melanoma (assay: DTP human tumour cell line panel, 48 h).

SMILES | GI50 | TGI
O=c1[nH]c(-c2cccc(F)c2)cc2cc(F)ccc12 | 571 nM | > 100000 nM
O=c1cccc(C#CC#C[C@@H]2O[C@H]2CO)o1 | 477 nM | 1100 nM
CSc1csc(-c2ccc(-c3ccc(-c4cc(SC)cs4)s3)s2)c1 |  | > 100000 nM
CCCCCCn1c(-c2ccc(C(=O)O/N=C(\N)c3ccc4c(c3)OCO4)cc2)nc(-c2ccccc2)c1-c1ccccc1 | 2870 nM | 10500 nM
[N-]=[N+]=CC(=O)OC(CCl)CCl |  | > 100000 nM

Each compound was assayed on MDA-N (assay: DTP human tumour cell line panel, 48 h).

SMILES | TGI
CSc1csc(-c2ccc(-c3ccc(-c4cc(SC)cs4)s3)s2)c1 | > 100000 nM
[N-]=[N+]=CC(=O)OC(CCl)CCl | > 100000 nM

The compounds below were run on HCT-15 colon (assay: DTP human tumour cell line panel, 48 h).

SMILES | GI50 | TGI
O=c1[nH]c(-c2cccc(F)c2)cc2cc(F)ccc12 | 119 nM | > 100000 nM
O=c1cccc(C#CC#C[C@@H]2O[C@H]2CO)o1 | 1420 nM | 3140 nM
CSc1csc(-c2ccc(-c3ccc(-c4cc(SC)cs4)s3)s2)c1 |  | > 100000 nM
CCCCCCn1c(-c2ccc(C(=O)O/N=C(\N)c3ccc4c(c3)OCO4)cc2)nc(-c2ccccc2)c1-c1ccccc1 | 1610 nM | 3340 nM
[N-]=[N+]=CC(=O)OC(CCl)CCl |  | > 100000 nM

The compounds below were run on SN12C renal (assay: DTP human tumour cell line panel, 48 h).

SMILES | GI50 | TGI
O=c1[nH]c(-c2cccc(F)c2)cc2cc(F)ccc12 | 1310 nM | > 100000 nM
O=c1cccc(C#CC#C[C@@H]2O[C@H]2CO)o1 | 465 nM | 915 nM
CSc1csc(-c2ccc(-c3ccc(-c4cc(SC)cs4)s3)s2)c1 |  | > 100000 nM
CCCCCCn1c(-c2ccc(C(=O)O/N=C(\N)c3ccc4c(c3)OCO4)cc2)nc(-c2ccccc2)c1-c1ccccc1 | 1870 nM | 4090 nM
[N-]=[N+]=CC(=O)OC(CCl)CCl |  | > 100000 nM

What follows are compounds tested on MOLT-4 leukemia (assay: DTP human tumour cell line panel, 48 h).

SMILES | GI50 | TGI
O=c1[nH]c(-c2cccc(F)c2)cc2cc(F)ccc12 | 568 nM | > 100000 nM
